Assay results from patent US20090047246A1, “NOVEL INHIBITORS OF HEPATITIS C VIRUS REPLICATION” (InterMune, Inc., priority 2007, published 2009).
pIC50: −log10 of the molar value. Where two headings read alike, the source gives them in different places.

Target: T1, HCV NS3 helicase (Hepatitis C virus genotype 1b, UniProt P26663)
T1 construct: full-length NS3 (1-631), purified at Array BioPharma
Assay: HCV Helicase Prompt FRET Assay (Example A)
Format: biochemical
Settings: read-out: IC50 Activity
How it was run: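 Initial unwinding rates, monitored as FAM fluorescence gain (ex 485, em 535) over ~30 min at room temperature, gave IC50 via 4- or 5-parameter logistic fits. Reactions: 50 nM quenched duplex, 250 nM capture strand, 300 μM ATP, 5–6 nM NS3 1-631 after 5 min compound preincubation, MOPS pH 7.0 buffer, 2% DMSO.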

[1] = HCV NS3 helicase, tables do not say whether Example A or Example B assay
[2] = Table 21, compounds made using Scheme 28

T1 sequence (P26663 1027-1657): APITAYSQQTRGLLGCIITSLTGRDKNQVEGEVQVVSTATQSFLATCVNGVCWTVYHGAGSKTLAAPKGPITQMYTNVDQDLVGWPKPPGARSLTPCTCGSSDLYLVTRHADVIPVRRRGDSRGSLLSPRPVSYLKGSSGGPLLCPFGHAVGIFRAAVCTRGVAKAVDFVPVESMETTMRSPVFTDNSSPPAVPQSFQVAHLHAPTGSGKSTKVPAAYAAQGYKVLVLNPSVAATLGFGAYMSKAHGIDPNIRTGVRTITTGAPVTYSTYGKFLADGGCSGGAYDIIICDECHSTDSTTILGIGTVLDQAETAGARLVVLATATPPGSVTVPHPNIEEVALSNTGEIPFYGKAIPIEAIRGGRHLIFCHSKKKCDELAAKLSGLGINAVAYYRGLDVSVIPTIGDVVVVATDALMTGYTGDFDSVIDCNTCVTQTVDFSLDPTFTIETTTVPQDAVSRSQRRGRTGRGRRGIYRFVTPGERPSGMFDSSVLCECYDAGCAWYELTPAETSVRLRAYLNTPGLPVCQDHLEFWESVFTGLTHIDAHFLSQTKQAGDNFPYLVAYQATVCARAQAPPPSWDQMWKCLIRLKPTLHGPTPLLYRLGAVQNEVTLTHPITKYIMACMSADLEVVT

Structure (SMILES) | pIC50 [1] | pIC50 [2]
O=C(O)Cc1cn(Cc2cccc(Oc3ccc(C(F)(F)F)cc3)c2)c2ccccc12 [Example 483] | > 5.00 | –
O=C(O)Cc1cn(Cc2cccc(Oc3ccc(F)c(F)c3)c2)c2ccccc12 [Example 484] | > 5.00 | –
O=C(O)Cc1cn(Cc2cccc(Oc3cc(Cl)cc(Cl)c3)c2)c2ccccc12 [Example 487] | > 5.00 | –
COc1cccc(Oc2cccc(Cn3cc(CC(=O)O)c4ccccc43)c2)c1OC [Example 488] | > 5.00 | –
COc1ccc(Oc2cccc(Cn3cc(CC(=O)O)c4ccccc43)c2)c(OC)c1 [Example 489] | 4.30 to 5.00 | –
COc1ccc(OC)c(Oc2cccc(Cn3cc(CC(=O)O)c4ccccc43)c2)c1 [Example 490] | 4.30 to 5.00 | –
O=C(O)Cc1cn(Cc2ccc(Oc3ccccc3F)cc2)c2ccccc12 [Example 493] | > 5.00 | –
O=C(O)Cc1cn(Cc2ccc(Oc3ccc(F)cc3)cc2)c2ccccc12 [Example 495] | > 5.00 | –
O=C(O)Cc1cn(Cc2ccc(Oc3ccc(Cl)cc3)cc2)c2ccccc12 [Example 498] | > 5.00 | –
COc1cccc(Oc2ccc(Cn3cc(CC(=O)O)c4ccccc43)cc2)c1 [Example 499] | 4.30 to 5.00 | –
COc1ccccc1Oc1ccc(Cn2cc(CC(=O)O)c3ccccc32)cc1 [Example 500] | > 5.00 | –
COc1ccc(Oc2ccc(Cn3cc(CC(=O)O)c4ccccc43)cc2)cc1 [Example 501] | > 5.00 | –
O=C(O)Cc1cn(Cc2ccc(Oc3ccccc3C(F)(F)F)cc2)c2ccccc12 [Example 502] | > 5.00 | –
O=C(O)Cc1cn(Cc2ccc(Oc3cccc(C(F)(F)F)c3)cc2)c2ccccc12 [Example 503] | > 5.00 | –
O=C(O)Cc1cn(Cc2ccc(Oc3cc(F)cc(F)c3)cc2)c2ccccc12 [Example 506] | > 5.00 | –
O=C(O)Cc1cn(Cc2ccc(Oc3cc(Cl)cc(Cl)c3)cc2)c2ccccc12 [Example 508] | > 5.00 | –
COc1ccc(OC)c(Oc2ccc(Cn3cc(CC(=O)O)c4ccccc43)cc2)c1 [Example 510] | > 5.00 | –
COc1ccc(Oc2ccc(Cn3cc(CC(=O)O)c4ccccc43)cc2)cc1OC [Example 511] | > 5.00 | –
O=C(O)Cc1cn(Cc2ccc(Oc3cc(C(F)(F)F)cc(C(F)(F)F)c3)cc2)c2ccccc12 [Example 512] | > 5.00 | –
CCOC(=O)Cc1cn(Cc2ccc(Oc3cc(Cl)cc(Cl)c3)cc2)c2ccccc12 [Example 515] | > 5.00 | –
CCOC(=O)Cc1cn(Cc2ccc(Oc3ccc(C(F)(F)F)cc3)cc2)c2ccccc12 [Example 516] | 4.30 to 5.00 | –

Structure (SMILES) | pIC50 [1] | pIC50 [2]
O=C(O)Cc1cn(Cc2ccc(Oc3cccc(F)c3)cc2)c2ccccc12 [Example 518] | > 5.00 | –
CN(c1cccc(Cn2cc(CC(=O)O)c3ccccc32)c1)c1ccccc1F [Example 520] | > 5.00 | –
CN(c1ccc(F)cc1)c1cccc(Cn2cc(CC(=O)O)c3ccccc32)c1 [Example 522] | > 5.00 | –
COc1ccccc1N(C)c1cccc(Cn2cc(CC(=O)O)c3ccccc32)c1 [Example 526] | 4.30 to 5.00 | –
CN(c1ccc(C(F)(F)F)cc1)c1cccc(Cn2cc(CC(=O)O)c3ccccc32)c1 [Example 531] | > 5.00 | –
CN(c1cccc(Cn2cc(CC(=O)O)c3ccccc32)c1)c1ccc(F)cc1F [Example 534] | 4.30 to 5.00 | –
CN(c1cccc(Cn2cc(CC(=O)O)c3ccccc32)c1)c1cccc(Cl)c1Cl [Example 537] | > 5.00 | –
CN(c1cccc(Cn2cc(CC(=O)O)c3ccccc32)c1)c1ccc(Cl)cc1Cl [Example 538] | > 5.00 | –
CN(c1cccc(Cn2cc(CC(=O)O)c3ccccc32)c1)c1cc(Cl)ccc1Cl [Example 539] | > 5.00 | –
COc1ccc(N(C)c2cccc(Cn3cc(CC(=O)O)c4ccccc43)c2)c(OC)c1 [Example 542] | > 5.00 | –
CN(c1cccc(Cn2cc(CC(=O)O)c3ccccc32)c1)c1cc(C(F)(F)F)cc(C(F)(F)F)c1 [Example 547] | > 5.00 | –
CCOC(=O)Cc1cn(Cc2cccc(N(C)c3cc(Cl)ccc3Cl)c2)c2ccccc12 [Example 548] | > 5.00 | –
CCOC(=O)Cc1cn(Cc2cccc(N(C)c3ccc(Cl)c(Cl)c3)c2)c2ccccc12 [Example 550] | < 4.30 | –
CCN(c1cccc(Cn2cc(CC(=O)O)c3ccccc32)c1)c1ccccc1Cl [Example 552] | > 5.00 | –
CCN(c1cccc(Cn2cc(CC(=O)O)c3ccccc32)c1)c1ccccc1C(F)(F)F [Example 553] | 4.30 to 5.00 | –
CC(C)N(c1cccc(Cn2cc(CC(=O)O)c3ccccc32)c1)c1ccccc1Cl [Example 554] | > 5.00 | –
CN(c1ccc(Cn2cc(CC(=O)O)c3ccccc32)cc1)c1cccc(Cl)c1 [Example 560] | – | > 5.00
COc1ccccc1N(C)c1ccc(Cn2cc(CC(=O)O)c3ccccc32)cc1 [Example 562] | – | 4.30 to 5.00
COc1cccc(N(C)c2ccc(Cn3cc(CC(=O)O)c4ccccc43)cc2)c1 [Example 563] | – | > 5.00
CN(c1ccc(Cn2cc(CC(=O)O)c3ccccc32)cc1)c1ccccc1C(F)(F)F [Example 565] | – | > 5.00

Other lines, results leading:

pIC50 [1] | pIC50 [2] | Structure (SMILES)
4.30 to 5.00 | – | COc1ccccc1Oc1cccc(Cn2cc(CC(=O)O)c3ccccc32)c1 [Example 478]
4.30 to 5.00 | – | COc1cccc(Oc2cccc(Cn3cc(CC(=O)O)c4ccccc43)c2)c1 [Example 479]
> 5.00 | – | COc1ccc(Oc2cccc(Cn3cc(CC(=O)O)c4ccccc43)c2)cc1 [Example 480]
> 5.00 | – | O=C(O)Cc1cn(Cc2cccc(Oc3ccccc3C(F)(F)F)c2)c2ccccc12 [Example 481]
> 5.00 | – | O=C(O)Cc1cn(Cc2cccc(Oc3cccc(C(F)(F)F)c3)c2)c2ccccc12 [Example 482]
4.30 to 5.00 | – | O=C(O)Cc1cn(Cc2cccc(Oc3cc(F)cc(F)c3)c2)c2ccccc12 [Example 485]
> 5.00 | – | O=C(O)Cc1cn(Cc2cccc(Oc3ccc(Cl)c(Cl)c3)c2)c2ccccc12 [Example 486]
4.30 to 5.00 | – | COc1ccc(Oc2cccc(Cn3cc(CC(=O)O)c4ccccc43)c2)cc1OC [Example 491]
> 5.00 | – | O=C(O)Cc1cn(Cc2cccc(Oc3cc(C(F)(F)F)cc(C(F)(F)F)c3)c2)c2ccccc12 [Example 492]
> 5.00 | – | O=C(O)Cc1cn(Cc2ccc(Oc3ccccc3Cl)cc2)c2ccccc12 [Example 496]
> 5.00 | – | O=C(O)Cc1cn(Cc2ccc(Oc3cccc(Cl)c3)cc2)c2ccccc12 [Example 497]
> 5.00 | – | O=C(O)Cc1cn(Cc2ccc(Oc3ccc(C(F)(F)F)cc3)cc2)c2ccccc12 [Example 504]
> 5.00 | – | O=C(O)Cc1cn(Cc2ccc(Oc3ccc(F)c(F)c3)cc2)c2ccccc12 [Example 505]
> 5.00 | – | O=C(O)Cc1cn(Cc2ccc(Oc3ccc(Cl)c(Cl)c3)cc2)c2ccccc12 [Example 507]
> 5.00 | – | COc1cccc(Oc2ccc(Cn3cc(CC(=O)O)c4ccccc43)cc2)c1OC [Example 509]
4.30 to 5.00 | – | CCOC(=O)Cc1cn(Cc2ccc(Oc3cc(C(F)(F)F)cc(C(F)(F)F)c3)cc2)c2ccccc12 [Example 517]
> 5.00 | – | CN(c1cccc(F)c1)c1cccc(Cn2cc(CC(=O)O)c3ccccc32)c1 [Example 521]
> 5.00 | – | CN(c1cccc(Cn2cc(CC(=O)O)c3ccccc32)c1)c1ccccc1Cl [Example 523]
> 5.00 | – | CN(c1cccc(Cl)c1)c1cccc(Cn2cc(CC(=O)O)c3ccccc32)c1 [Example 524]
> 5.00 | – | CN(c1ccc(Cl)cc1)c1cccc(Cn2cc(CC(=O)O)c3ccccc32)c1 [Example 525]

pIC50 [1] | pIC50 [2] | Structure (SMILES)
> 5.00 | – | COc1cccc(N(C)c2cccc(Cn3cc(CC(=O)O)c4ccccc43)c2)c1 [Example 527]
> 5.00 | – | COc1ccc(N(C)c2cccc(Cn3cc(CC(=O)O)c4ccccc43)c2)cc1 [Example 528]
> 5.00 | – | CN(c1cccc(Cn2cc(CC(=O)O)c3ccccc32)c1)c1ccccc1C(F)(F)F [Example 529]
> 5.00 | – | CN(c1cccc(Cn2cc(CC(=O)O)c3ccccc32)c1)c1cccc(C(F)(F)F)c1 [Example 530]
> 5.00 | – | CN(c1cccc(Cn2cc(CC(=O)O)c3ccccc32)c1)c1cccc(F)c1F [Example 533]
4.30 to 5.00 | – | CN(c1cccc(Cn2cc(CC(=O)O)c3ccccc32)c1)c1cc(F)ccc1F [Example 535]
4.30 to 5.00 | – | CN(c1cccc(Cn2cc(CC(=O)O)c3ccccc32)c1)c1c(F)cccc1F [Example 536]
> 5.00 | – | CN(c1cccc(Cn2cc(CC(=O)O)c3ccccc32)c1)c1c(Cl)cccc1Cl [Example 540]
> 5.00 | – | CN(c1cccc(Cn2cc(CC(=O)O)c3ccccc32)c1)c1ccc(Cl)c(Cl)c1 [Example 541]
> 5.00 | – | COc1ccc(OC)c(N(C)c2cccc(Cn3cc(CC(=O)O)c4ccccc43)c2)c1 [Example 543]
> 5.00 | – | COc1ccc(N(C)c2cccc(Cn3cc(CC(=O)O)c4ccccc43)c2)cc1OC [Example 544]
4.30 to 5.00 | – | CN(c1cccc(Cn2cc(CC(=O)O)c3ccccc32)c1)c1ccc(C(F)(F)F)cc1C(F)(F)F [Example 545]
> 5.00 | – | CN(c1cccc(Cn2cc(CC(=O)O)c3ccccc32)c1)c1cc(C(F)(F)F)ccc1C(F)(F)F [Example 546]
> 5.00 | – | CC(C)N(c1cccc(Cn2cc(CC(=O)O)c3ccccc32)c1)c1ccccc1C(F)(F)F [Example 555]
– | > 5.00 | CN(c1ccc(Cn2cc(CC(=O)O)c3ccccc32)cc1)c1cccc(F)c1 [Example 557]
– | 4.30 to 5.00 | CN(c1ccc(F)cc1)c1ccc(Cn2cc(CC(=O)O)c3ccccc32)cc1 [Example 558]
– | > 5.00 | CN(c1ccc(Cn2cc(CC(=O)O)c3ccccc32)cc1)c1ccccc1Cl [Example 559]
– | > 5.00 | CN(c1ccc(Cl)cc1)c1ccc(Cn2cc(CC(=O)O)c3ccccc32)cc1 [Example 561]
– | > 5.00 | COc1ccc(N(C)c2ccc(Cn3cc(CC(=O)O)c4ccccc43)cc2)cc1 [Example 564]
